Experimental findings from patent US20260284211A1, “DISACCHARIDE LINKER, LINKER-PAYLOAD CONTAINING THE SAME AND GLYCAN CHAIN-REMODELED ANTIBODY-DRUG CONJUGATE, PREPARATION METHOD AND USES THEREOF” (GENEQUANTUM HEALTHCARE (SUZHOU) CO., LTD., priority 2023, published 2026) are described below.

Assay type in all cases: cell-based
One test has as its system SK-BR-3 tumor cells. In words: Inhibition of SK-BR-3 tumor cell proliferation (CellTiter-Glo). The settings on record: Homo sapiens, HER2 high expression cells, 96 hours, cell viability, read-out: IC50, inhibitory effects on SK-BR-3 tumor cells. How it is done:
(§1) Tumor cells in the logarithmic phase of growth were collected, and 5000 cells per well were evenly inoculated in each hole of the 96-well plate. After the cell adhesion overnight, the cells were treated with different concentrations of drugs for 96 hours. Cell viability was measured by CellTiter-Glo® luminescence cell viability detection kit, and the percentage of cell viability was calculated.

Another test deals with NCI-N87 tumor cells. Put plainly: Inhibition of NCI-N87 tumor cell proliferation (CellTiter-Glo). The conditions noted are these: Homo sapiens, HER2 high expression cells, 96 hours, cell viability, read-out: IC50, inhibitory effects on NCI-N87 tumor cells. How it is done: as §1
A general note: ATP-based viability assays read luminescence as a measure of living cells.

A further test relates to MDA-MB-468 tumor cells. In words: Inhibition of MDA-MB-468 tumor cell proliferation (CellTiter-Glo). The settings on record: Homo sapiens, HER2-negative cells, 96 hours, cell viability, read-out: IC50, inhibitory effects on MDA-MB-468 tumor cells. Here is the method:
as §1

pIC50: −log10 of the molar value.

What is called pIC50 is the negative decadic logarithm of the IC50, by convention in mol/L. With `C=C1C[C@@H]2CC[C@@]34C[C@H]5O[C@H]6[C@@H](O3)[C@H]3O[C@H](CC[C@@H]3O[C@H]6[C@H]5O4)CC(=O)C[C@@H]3[C@@H](OC)[C@@H](C[C@H](O)CN)O[C@H]3C[C@H]3O[C@@H](CC[C@@H]1O2)C[C@@H](C)C3=C` [Eribulin], the results for the pIC50 with SK-BR-3 tumor cells, in the test with NCI-N87 tumor cells and in the test on MDA-MB-468 tumor cells were 9.52, 9.21 and 10.03, respectively.
